For two molecules, ΔTm, KD and Kd results are on record in publication PMC6538641 (2019).

The test system of data set [1] is 5'-FAM-AS1411-TAMRA-3' (DNA, G4) GGTGGTGGTGGTTGTGGTGGTGGTGG
In words: FRET melting. The settings on record: 10 mM KCl, 90 mM LiCl; 10 mM lithium cacodylate, pH 7.2; 1 µM C8, 0.2 µM DNA; no nucleolin; Tm 46.9 °C.

The test system of data set [2] is U-AS1411 (DNA, G4, uracil in place of thymine at 12 and 13 (text: dT to rU substitutions)) GGTGGTGGTGGUUGTGGTGGTGGTGG
Kind of data set: fluorescence titration of ligand, Hill model. The settings on record: 100 mM KCl, 30 mM potassium phosphate; pH 7.2; 5 μM C8; apparent; Hill n 2.5; SD ≤ 1 × 10^−8 M.

Data set [3] deals with AS1411 (DNA, G4) GGTGGTGGTGGTTGTGGTGGTGGTGG
Kind of data set: CD melting. The settings on record: 10 mM KCl, 90 mM LiCl; 10 mM lithium cacodylate, pH 7.2; 2 molar equivalents C8; Tm without ligand 56.3 °C.

Data set [4] concerns U-AS1411 (DNA, G4, uracil in place of thymine at 12 and 13 (text: dT to rU substitutions)) GGTGGTGGTGGUUGTGGTGGTGGTGG
In words: CD melting. The settings on record: 10 mM KCl, 90 mM LiCl; 10 mM lithium cacodylate, pH 7.2; 2 molar equivalents C8; Tm without ligand 52.6 °C.

Data set [5] concerns AS1411 (DNA, G4) GGTGGTGGTGGTTGTGGTGGTGGTGG
In words: fluorescence titration of ligand, Hill model. The settings on record: 100 mM KCl, 30 mM potassium phosphate; pH 7.2; 5 μM C8; apparent; Hill n 2.8; SD ≤ 1 × 10^−8 M.

Another data set deals with nucleolin (UniProt P19338). Kind of data set: fluorescence titration. The settings on record: Fluorescence titration: buffer for the nucleolin titration not stated separately (C8-aptamer titrations: 30 mM potassium phosphate pH 7.2, 100 mM KCl).

pKd: −log10 of the molar value.

UniProt P19338, sequence (P19338 whole entry): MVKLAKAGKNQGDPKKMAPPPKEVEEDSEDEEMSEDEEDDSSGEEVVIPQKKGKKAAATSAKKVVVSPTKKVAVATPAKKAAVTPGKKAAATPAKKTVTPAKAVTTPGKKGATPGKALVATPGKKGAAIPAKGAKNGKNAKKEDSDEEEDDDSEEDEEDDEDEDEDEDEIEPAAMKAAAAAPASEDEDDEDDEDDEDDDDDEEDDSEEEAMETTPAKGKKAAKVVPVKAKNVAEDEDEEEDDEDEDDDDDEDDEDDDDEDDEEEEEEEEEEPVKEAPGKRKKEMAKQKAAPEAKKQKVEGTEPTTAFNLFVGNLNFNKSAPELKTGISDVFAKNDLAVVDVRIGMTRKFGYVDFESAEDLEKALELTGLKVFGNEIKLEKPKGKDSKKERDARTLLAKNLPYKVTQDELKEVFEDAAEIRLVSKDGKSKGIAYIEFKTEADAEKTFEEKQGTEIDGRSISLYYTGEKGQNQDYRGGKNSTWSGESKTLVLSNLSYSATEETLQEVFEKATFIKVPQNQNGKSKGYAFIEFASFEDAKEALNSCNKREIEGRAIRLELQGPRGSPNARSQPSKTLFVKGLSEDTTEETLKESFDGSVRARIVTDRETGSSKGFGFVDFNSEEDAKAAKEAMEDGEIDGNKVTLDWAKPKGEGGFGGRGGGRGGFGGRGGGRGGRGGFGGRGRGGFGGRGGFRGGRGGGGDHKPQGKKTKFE

With `CN(C)c1ccc2cc3ccc(N(C)C)cc3[n+](CCCCCCCCNC(=O)c3ccc(I)cc3)c2c1`, the ΔTm in data set [1] was 13.1 ± 0.8 °C; in data set [3], 28.4 ± 0.2 °C; in data set [4], 24.5 ± 0.4 °C. The figures for the KD in data set [2] and in data set [5] were 1370 nM and 1290 nM, respectively.
As for GGTGGTGGTGGTTGTGGTGGTGGTGG [Cy3-AS1411], the pKd in the data set with nucleolin (no C8, Cy3-AS1411 at 1 uM (Kd far below probe concentration)) is 11.06; in the data set with nucleolin (with ligand C8, Cy3-AS1411 at 1 uM (Kd far below probe concentration)), 11.20.
